# According to patent US7569547B2, “Inhibiting furin with polybasic peptides” (Board of Supervisors of Louisiana State University and …, priority 2001, dated 2009):
# “Also recorded” adds a separate entry of the source.
# Tests used:
# PC1 = target: T1, PC1 (Mus musculus, UniProt P63239); assay: biochemical; format: biochemical
# T1 construct: made in house
# T1 sequence (P63239 111-753): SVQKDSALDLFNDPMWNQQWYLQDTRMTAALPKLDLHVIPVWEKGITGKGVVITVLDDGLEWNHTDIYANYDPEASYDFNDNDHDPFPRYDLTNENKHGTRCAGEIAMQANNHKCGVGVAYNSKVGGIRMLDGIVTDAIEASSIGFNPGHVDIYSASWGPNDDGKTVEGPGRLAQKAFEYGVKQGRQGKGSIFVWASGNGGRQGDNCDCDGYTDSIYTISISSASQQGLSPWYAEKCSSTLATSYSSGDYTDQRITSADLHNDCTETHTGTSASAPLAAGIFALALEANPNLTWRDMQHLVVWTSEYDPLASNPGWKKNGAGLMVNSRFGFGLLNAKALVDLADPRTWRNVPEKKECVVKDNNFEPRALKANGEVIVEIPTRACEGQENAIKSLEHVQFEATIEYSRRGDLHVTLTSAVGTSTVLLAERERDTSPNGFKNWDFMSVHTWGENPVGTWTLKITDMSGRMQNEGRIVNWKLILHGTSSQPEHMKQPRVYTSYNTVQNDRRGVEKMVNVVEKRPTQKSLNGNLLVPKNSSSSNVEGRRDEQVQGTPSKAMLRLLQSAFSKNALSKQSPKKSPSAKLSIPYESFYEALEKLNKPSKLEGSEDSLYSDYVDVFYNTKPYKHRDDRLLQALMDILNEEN
# Protocol: (§1) The proprotein convertases PC1 and PC2 were prepared by ion exchange chromatography as described in G. Frenette et al., Biochim. Biophys. Acta., vol. 1334, pp. 109-115 (1997).
# (§2) Enzyme Assays and Hexapeptide Library Screening. Enzyme assays for PC1 and PC2 were performed at pH 5.0 using pERTKR-MCA (Peptides International Inc., Louisville, Ky.) as described in E. Apletalina et al., J. Biol. Chem., vol. 273, pp. 26589-26595 (1998). The assay for furin was performed using the same substrate at pH 7.0 in 100 mM HEPES, 5 mM CaCl2, 0.1% Brij 35. All assays were performed at 37° C. in a 96 well fluorometer (Labsystems) at an excitation wavelength of 380 nm with emission monitored at a wavelength of 460 nm. The total volume was 50 μL. Unless otherwise stated, the final substrate concentration for all assays was 200 μM. When used in a particular experiment, the inhibitory peptides were pre-incubated with enzyme for 30 min at room temperature prior to addition of substrate. All assays were performed in duplicate or triplicate.
# furin = target: T2, furin (Mus musculus, UniProt P23188); assay: Cleavage of polyarginines by furin, HPLC analysis; format: biochemical
# T2 construct: truncated N-terminally to the transmembrane domain at His^711 using PCR; myc (C, cleaved yes); hexa-His (C, cleaved yes); made in house; host or cells: DG44 CHO cells, conditioned medium
# T2 sequence (P23188 108-714 limits assumed): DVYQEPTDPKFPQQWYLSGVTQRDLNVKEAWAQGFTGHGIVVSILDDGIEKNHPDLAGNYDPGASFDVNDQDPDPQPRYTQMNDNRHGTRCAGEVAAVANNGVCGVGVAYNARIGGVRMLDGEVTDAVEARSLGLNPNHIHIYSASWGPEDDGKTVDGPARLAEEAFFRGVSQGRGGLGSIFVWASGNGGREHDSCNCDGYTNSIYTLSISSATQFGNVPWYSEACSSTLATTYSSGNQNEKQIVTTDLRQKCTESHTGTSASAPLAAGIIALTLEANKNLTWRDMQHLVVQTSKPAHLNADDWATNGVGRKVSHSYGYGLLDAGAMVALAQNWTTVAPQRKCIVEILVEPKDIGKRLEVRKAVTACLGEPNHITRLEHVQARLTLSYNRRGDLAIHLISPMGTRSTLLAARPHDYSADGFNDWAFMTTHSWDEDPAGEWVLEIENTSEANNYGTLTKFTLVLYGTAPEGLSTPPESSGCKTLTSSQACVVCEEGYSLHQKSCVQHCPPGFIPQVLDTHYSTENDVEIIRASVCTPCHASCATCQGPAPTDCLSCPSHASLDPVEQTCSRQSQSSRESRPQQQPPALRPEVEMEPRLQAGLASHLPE
# Protocol: Absorbance was monitored at 214 nm. Cleavage products were identified by comparison to polyarginine standards.
# Cleavage of Nona-L-arginine (SEQ ID NO 13) and Hexa-L-arginine (SEQ ID NO 14) by Furin. FIGS. 10(a) through (h) depict the cleavage of nona-L-arginine (SEQ ID NO 13) and hexa-L-arginine (SEQ ID NO 14) by furin. Furin (FIGS. (10(b), (c), (d), (e), and (g)) or buffer (FIGS. 10(f) and (h) was incubated with nona-L-arginine (SEQ ID NO 13) (FIGS. 10(b), (c), (d), (e), and (f) or hexa-L-arginine (SEQ ID NO 14) (FIGS. (10(g) and (h) at 37° C. for 0 min (FIG. (10(b)), 40 min (FIG. 10(c)), 6 h (FIG. 10(d)), or 24 h (FIGS. 10(e), (f), (g), and (h) prior to separation by HPLC as described in the experimental procedures. In FIG. 10(a) the simple separation of a standard mixture polyarginines (without enzyme) is shown; the number of residues per poly-L-arginine is indicated by the positions of the arrows at the tops of FIGS. 10(a) and (e).
# HEK293 cells = assay: Growth of HEK293 cells monitored with the dye WST (cytotoxicity); format: cell-based, human
# Protocol: HEK293 cells were seeded into 96-well plates at the densities indicated. Their growth rates were monitored using the dye WST, which is cleaved by mitochondrial dehydrogenases to a […] dye only in viable cells.
# PC2 [1] = target: T3, PC2 (Mus musculus, UniProt P21661); assay: PC2 enzyme assay, hydrolysis of pERTKR-MCA at pH 5.0; format: biochemical; set-up: made in house; settings: data not shown
# T3 sequence (P21661 109-637): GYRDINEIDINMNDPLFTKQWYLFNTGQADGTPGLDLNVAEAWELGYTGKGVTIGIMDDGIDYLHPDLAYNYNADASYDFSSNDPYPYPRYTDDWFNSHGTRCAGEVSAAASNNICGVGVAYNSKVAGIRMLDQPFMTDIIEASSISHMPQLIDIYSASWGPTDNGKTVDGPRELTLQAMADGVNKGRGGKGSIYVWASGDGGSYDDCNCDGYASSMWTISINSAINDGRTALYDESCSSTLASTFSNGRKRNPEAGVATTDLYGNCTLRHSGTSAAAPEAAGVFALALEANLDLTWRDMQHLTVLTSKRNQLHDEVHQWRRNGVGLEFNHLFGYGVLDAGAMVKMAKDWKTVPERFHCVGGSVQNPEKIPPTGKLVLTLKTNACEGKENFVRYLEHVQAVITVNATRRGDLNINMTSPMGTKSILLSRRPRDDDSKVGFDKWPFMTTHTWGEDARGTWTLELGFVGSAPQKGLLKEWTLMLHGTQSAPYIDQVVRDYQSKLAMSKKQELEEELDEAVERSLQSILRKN
# Protocol: as §1, §2
# PC2 [2] = target: T3, PC2
smiles,measurement,setting,value
N=C(N)NCCC[C@@H](NC(=O)[C@H](N)CCCN=C(N)N)C(=O)N[C@H](CCCNC(=N)N)C(=O)N[C@H](CCCNC(=N)N)C(=O)N[C@H](CCCNC(=N)N)C(=O)N[C@H](CCCN=C(N)N)C(=O)O [Hexa-D-arginine],Ki,PC1,13 ± 0.25 µM
same,cleavage by furin,furin; after 24 hours incubation,essentially no cleavage
same,mean absorbance at 450 nm (WST),"HEK293 cells; HEK293, 2 μM D6R, 51 hour",0.69 ± 0.02
same,mean absorbance at 450 nm (WST),"HEK293 cells; HEK293, 2 μM D6R, 75 hour",1.25 ± 0.11
same,mean absorbance at 450 nm (WST),"HEK293 cells; HEK293, 2 μM D6R, 99 hour",1.42 ± 0.02
same,mean absorbance at 450 nm (WST),"HEK293 cells; HEK293, 4 μM D6R, 51 hour",0.64 ± 0.03
same,mean absorbance at 450 nm (WST),"HEK293 cells; HEK293, 4 μM D6R, 75 hour",1.28 ± 0.14
same,mean absorbance at 450 nm (WST),"HEK293 cells; HEK293, 4 μM D6R, 99 hour",1.39 ± 0.06
same,mean absorbance at 450 nm (WST),"HEK293 cells; HEK293, 6 μM D6R, 51 hour",0.63 ± 0.04
same,mean absorbance at 450 nm (WST),"HEK293 cells; HEK293, 6 μM D6R, 75 hour",1.13 ± 0.14
same,mean absorbance at 450 nm (WST),"HEK293 cells; HEK293, 6 μM D6R, 99 hour",1.48 ± 0.04
same,mean absorbance at 450 nm (WST),"HEK293 cells; HEK293, 8 μM D6R, 51 hour",0.67 ± 0.01
same,mean absorbance at 450 nm (WST),"HEK293 cells; HEK293, 8 μM D6R, 75 hour",1.36 ± 0.08
same,mean absorbance at 450 nm (WST),"HEK293 cells; HEK293, 8 μM D6R, 99 hour",1.40 ± 0.05
same,mean absorbance at 450 nm (WST),"HEK293 cells; HEK293, 10 μM D6R, 51 hour",0.64 ± 0.03
same,mean absorbance at 450 nm (WST),"HEK293 cells; HEK293, 10 μM D6R, 75 hour",1.28 ± 0.14
same,mean absorbance at 450 nm (WST),"HEK293 cells; HEK293, 10 μM D6R, 99 hour",1.49 ± 0.08
same,mean absorbance at 450 nm (WST),"HEK293 cells; HEK293, 30 μM D6R, 51 hour",0.64 ± 0.02
same,mean absorbance at 450 nm (WST),"HEK293 cells; HEK293, 30 μM D6R, 75 hour",1.29 ± 0.08
same,mean absorbance at 450 nm (WST),"HEK293 cells; HEK293, 30 μM D6R, 99 hour",1.45 ± 0.06
same,mean absorbance at 450 nm (WST),"HEK293 cells; HEK293, 60 μM D6R, 51 hour",0.66 ± 0.05
same,mean absorbance at 450 nm (WST),"HEK293 cells; HEK293, 60 μM D6R, 75 hour",1.17 ± 0.08
same,mean absorbance at 450 nm (WST),"HEK293 cells; HEK293, 60 μM D6R, 99 hour",1.48 ± 0.06
same,mean absorbance at 450 nm (WST),"HEK293 cells; HEK293, 100 μM D6R, 51 hour",0.62 ± 0.03
same,mean absorbance at 450 nm (WST),"HEK293 cells; HEK293, 100 μM D6R, 75 hour",1.19 ± 0.11
same,mean absorbance at 450 nm (WST),"HEK293 cells; HEK293, 100 μM D6R, 99 hour",1.47 ± 0.09
same,effect on growth of the cells,"HEK293 cells; HEK293 cells, 2-100 μM",did not significantly affect the growth of the cells
same,cytotoxicity,"HEK293 cells; HEK293 cells, up to 100 μM final concentration, preliminary data, listed as D6R",not toxic to cells; also recorded: did not appear to be cytotoxic
same,effect on PC2 activity,PC2 [1],no stimulatory or inhibitory effect
N=C(N)NCCC[C@H](NC(=O)[C@H](CCCNC(=N)N)NC(=O)[C@H](CCCNC(=N)N)NC(=O)[C@H](CCCNC(=N)N)NC(=O)[C@H](CCCNC(=N)N)NC(=O)[C@@H](N)CCCNC(=N)N)C(=O)O [Hexa-L-arginine],Ki,PC1,3.9 ± 0.62 µM
same,cleavage by furin,furin; after 24 hours incubation,partial digestion
same,cleavage by furin,furin; after six hours incubation,essentially no cleavage
same,effect on PC2 activity,PC2 [1],Stimulates PC2 Activity
N=C(N)NCCC[C@H](NC(=O)[C@H](CCCNC(=N)N)NC(=O)[C@H](CCCNC(=N)N)NC(=O)[C@H](CCCNC(=N)N)NC(=O)[C@H](CCCNC(=N)N)NC(=O)[C@H](CCCNC(=N)N)NC(=O)[C@H](CCCNC(=N)N)NC(=O)[C@H](CCCNC(=N)N)NC(=O)[C@@H](N)CCCNC(=N)N)C(=O)O [Nona-L-arginine],Ki,PC1,12 ± 2.5 µM
same,time at which cleavage by furin was first observed,"furin; 200 μM peptide, 1.7 μM furin, 37° C.",~40 min
same,original peptide remaining,"furin; after four hours with furin, 37° C.",essentially none
same,cleavage by PC2,PC2 [2],essentially no cleavage
